Results published in article PMC7277860, “Viridistratins A−C, Antimicrobial and Cytotoxic Benzo[j]fluoranthenes from Stromata of Annulohypoxylon viridistratum (Hypoxylaceae, Ascomycota)” (Biomolecules, 2020).

Legend:
Mucor hiemalis = experiment: MIC serial dilution assay; assay type: cell-based; details: Mucor hiemalis DSM2656; overnight, 30 °C; reference nystatin 1 mg/mL
Description: (§1) Compounds 1, 2, 4 and 5 were dissolved in MeOH (1 mg/mL) for the antimicrobial activity assay, while compound 3 was dissolved in MeOH: DMSO 9+1 (1 mg/mL). The solvents were also used as negative controls.
(§2) Minimum inhibitory concentrations (MIC) were determined in a serial dilution assay, as described previously; a detailed protocol can be found in the Supporting Information. The compounds (1 mg/mL) were diluted to a range of 66.7 to 0.52 µg/mL and incubated with the test organisms overnight. Inhibition of growth was visually evaluated the next day: the MIC is defined as the lowest concentration of the test compound where no growth of the test organism was observed. Various test organisms of fungal and bacterial origin were tested to cover a broad range of microorganisms. This selection is also being used as a standard test panel in our attempts to discover new anti-infectives, as it represents a broad spectrum of pathogens of clinical interest, as well as sensitive indicator strains (bacteria: Bacillus subtilis, Staphylococcus aureus, Micrococcus luteus, Chromobacterium violaceum, Escherichia coli and Pseudomonas aeruginosa; mycobacteria: Mycolicibacterium smegmatis and fungi: Candida albicans, Schizosaccharomyces pombe, Mucor hiemalis, Pichia anomala and Rhodotorula glutinis).
(§3) Protocol: Antimicrobial Activi ty Assay
(§4) The assay was conducted as a minimum inhi bitory concentration (MIC) assay in 96-well ro und-bottom mi crotiter pl ate s usi ng the p ar ameter s su mm ari zed i n T a bl e S 1 and as already described i n [S1].
(§5) Stocks of the test organi sms were generated by growing the organisms o ver ni ght i n 50 mL shaki ng fl asks fi ll ed wi th 25 mL of the growth medi um at 140 rpm (for media and temperatures see Table S1). If the organisms were well grown the ne xt day, which was checked by occurrence of an optical density (OD)>30 of the suspension (OD600 nm for bacteria, OD548 nm for fungi and M. smegma tis) , aliquots of these were stored i n 1.5 mL reaction tube s in a freezer at −80 °C for up to 12 mo nths . Upon use, aliquots were unth awed and the OD of the suspension measured and adjusted by diluting with the respective growth medi um. OD600 nm w as adj usted to 0.01 and OD548 nm to 0.1.
(§6) Subse que ntly, 150 µL o f the adjusted suspensions were added to all wells of a 96-wel l microtiter pl ate (one test organi sm per plate). In row A, additional 130 µL of suspensions plus 20 µL of the test compounds (1 mg/mL) and the controls (one compound/column) were added. MeOH as well as MeOH:DMSO 9+1 were used as negative controls, while different positive controls (refer ences) were used for the test organisms (see Tabl e S1). Then, starti ng from row A, 150 µ L of the suspension were transferred to the next row, the contents thoroughly mixed, and 150 µ L transferred to the following row.
(§7) The remaining 150 µ L after row H were discarded. […]
(§8) compounds, ranging from 66.7 µg/mL i n row A to 0.52 µg/mL i n row H.
(§9) The microtiter plates were then incubated overnight o n a microplate shaker at 800 rpm at 30 or 37 °C (see Table S1) and were visually evaluated the next day. The MIC is defined as the lowest concentration were no growth of the test organism was o bserved. A lower MIC thus corresponds to a higher antimicrobial activity of the test compound.
(§10) Table S1: MIC assay ex per i men t parameters test organism strain No. growth incubation positive control (reference) […]
Mucor hiemalis DSM2656 MYC 3 30 nyst ati n 1.0 mg/mL […]
(§11) Rhodotorula glutinis DSM10134 MYC 3 30 nyst ati n 1.0 mg/mL
(§12) 1 MHB: Müller-Hinton Broth (SN X927.1, Ca r l Roth GmbH, Karlsruhe, Germany) 2 7H9+ADC: Middlebrook 7H9 Broth Base + Middlebrook ADC Growth Supplement (SN M0678+M0553, Merck, Darmstadt, Germany)
(§13) 3 MYC: 1 % w/v, bacto peptone, 1% w/v yeast extract, 2 % w /v glycerol, pH 6.3 [S1] Helaly, S.E.; Ashrafi, S.; Teponno, R.B.; Bernecker, S.; Dababat, A.A.; Maier, W.; Stadler, M.
(§14) Nematicidal Cyclic Lipodepsipeptides and a Xanthocillin Derivative from a Phaeosphariaceous […]

Candida albicans = experiment: MIC serial dilution assay; assay type: cell-based; details: Candida albicans DSM1665; overnight, 30 °C; reference nystatin 1 mg/mL
Description: as §1, §2, §3, §4, §5, §6, §7, §8, §9, §10
Candida albicans DSM1665 MYC 3 30 nyst ati n 1.0 mg/mL […]
as §11, §12, §13, §14

Pichia anomala = experiment: MIC serial dilution assay; assay type: cell-based; details: Pichia anomala DSM6766; overnight, 30 °C; reference nystatin 1 mg/mL
Description: as §1, §2, §3, §4, §5, §6, §7, §8, §9, §10
Pichia anomala DSM6766 MYC 3 30 nyst ati n 1.0 mg/mL
as §11, §12, §13, §14

Rhodotorula glutinis = experiment: MIC serial dilution assay; assay type: cell-based; details: Rhodotorula glutinis DSM10134; overnight, 30 °C; reference nystatin 1 mg/mL
Description: as §1, §2, §3, §4, §5, §6, §7, §8, §9, §10, §11, §12, §13, §14

[1] = test system: Schizosaccharomyces pombe; experiment: MIC serial dilution assay; assay type: cell-based; details: Schizosaccharomyces pombe DSM70572; overnight, 30 °C; reference nystatin 1 mg/mL
Description: as §1, §2, §3, §4, §5, §6, §7, §8, §9, §10
Schizosaccharomyces DSM70572 MYC 3 30 nyst ati n 1.0 mg/mL […]
as §11, §12, §13, §14

Cytotoxicity assay (MTT) [2] = assay type: cell-based, human
Description: (§15) Compounds 1−5 were dissolved as described in the previous section. The cytotoxicity assay was initially performed against the cell lines L929 (mouse fibroblasts), as well as KB 3.1 (human papillomavirus-related endocervical adenocarcinoma), as described previously. A detailed protocol, as well as sources of the cell lines, is given in the Supporting Information.
(§16) After incubating the cell lines with a serial dilution of the test compounds (final range: 37 to 0.6 × 10^−3 µg/mL) for five days, the cells were dyed using 3-(4,5-dimethyl-2-thiazolyl)-2,5-diphenyl-2H-tetrazolium bromide (MTT), which is only converted to its purple formazan derivative by living cells. Then, the intensity of the purple derivative in relation to cells without additive (set to 100% viability) for each concentration of a test compound was quantified. For this, the absorption at 595 nm was measured using a microplate reader to calculate the percentage of cell viability. From this, the half-maximum inhibitory concentration (IC50, in µM) was calculated.
If an inhibition of cell viability with an IC50 < 50 µM was observed, further cell lines were subjected to the test compounds: PC-3 (human prostate adenocarcinoma), SK-OV-3 (human ovary adenocarcinoma), MCF-7 (human breast adenocarcinoma), A431 (human squamous carcinoma) and A549 (human lung carcinoma).
(§17) Protocol: Cytotoxicity Assay
(§18) The ass ay w as co nducted i n 9 6-well flat-bottom mi crotiter plates using the parameters summarised i n Tabl e S 2 and as described in [S2].
(§19) Cell lines L929 and KB 3.1 were incubated at 37 °C under 10 % CO2 in Gibco™ DMEM medium (Thermo Fisher Scientific, Waltham, MA, USA) supplemented with 10 % FBS. A microtiter plate was filled with 120 µL of this suspension (50,000/mL) in each well.
(§20) Seperately, another microtiter plate was filled with 100 µL of growth medium in each well. Then, 50 µL of the test compound sol utions (1 mg/mL) were given to wells of the first column in two replicates (one compound per row). C ell s wi thout addi ti ves, Me O H, and MeOH: DMSO 9+1 were used as negative controls. Starting from the first column, 50 µL of the solutions were gradually transferred to the ne xt col umn, the conte nts thoroughl y mi xed, and 50 µ L transferred to the following column. This created a serial dilution of the test compounds r anging from 333 µg/mL to 1.9 ×10−3 µg/mL. The remai ni ng 50 µL after column twelve were discarded. From this microtiter plate, 60 µL of the sol utions from 111 µg/ mL to 1.9×10−3 µg/mL were given to the first plate containing 120 µL of the cel l suspens i ons (i.e. the hi ghest concentrati on 333 µg/mL was not used). T his resulted i n fi nal compound concent rati ons rangi ng from […]
(§21) After 5 days of incubation under the aforeme ntioned i ncubati on condi ti ons, the half maximum inhibitory concentrati ons (IC 50) were determined using a colorimetric tetrazolium dye MTT assay [S3].
(§22) For this, 20 µL of a 5 mg/mL solution of 3-( 4 ,5 -dimethyl-2-thi azo l yl)-2 ,5 -di phenyl -2H-tetrazolium bromide (MTT) w ere added to each well and incubated for two hours at 37 °C. Then, the microtiter plate was centrifuged (3,000 r p m, 5 mi n) and the supernat ant remo ved by ho l di ng the pl ate upsi de-do wn and gentle shaking. Afterwards, the wells were washed using 100 µL of phosph ate buffered saline (PBS).
(§23) The plate was again centrifuged and the supernatant removed as described before. Then, 100 µL of an isopropanol:HCl solution (1L i sopropanol+4 mL HCl 37 % w/v) were added to the wells. After i ncubati ng fo r 10 mi n at ambi ent te mperature, the a bso r pti o n of the well s at 595 nm was measured wi th an I nfi ni te ® 200 Pro microplate reader (TECAN, Männedorf, Schweiz).
(§24) The absorption values of the cells without additives were averaged and set to 100 % cell viability.
(§25) Then, t he me ans of absorption of the two compound replicates were set in relation to the blank media.
These percentage values were plotted a gainst the concentration range (37 µg/mL to 0.6×10 −3 µg/mL). […]

Cytotoxicity assay (MTT) [3] = assay type: cell-based
Description: as §15, §16, §17, §18, §19, §20, §21, §22, §23, §24, §25
These percentage values were plotted a gainst the concentration range (37 µg/mL to 0.6×10 −3 µg/mL).
The IC50 val ue w as read from the plot ( i n µg/mL) and the uni ts conversed to µM.
If effects were observed wi th cell lines L929 and KB 3.1 (IC50 < 50 µM), the other cell lines were tested using the same protocol.
Table S2: Cytotoxicity assay experiment parameters cell line type No. growth medium […]

| SMILES | Minimum Inhibitory Concentration (MIC) (Mucor hiemalis) | Minimum Inhibitory Concentration (MIC) (Candida albicans) | Minimum Inhibitory Concentration (MIC) (Pichia anomala) | Minimum Inhibitory Concentration (MIC) (Rhodotorula glutinis) | Minimum Inhibitory Concentration (MIC) [1] | IC50 at 5 days (Cytotoxicity assay (MTT) [2]; A431 human squamous AC) [nM] | IC50 at 5 days (Cytotoxicity assay (MTT) [2]; A549 human lung carcinoma) [nM] | IC50 at 5 days (Cytotoxicity assay (MTT) [2]; MCF-7 human breast AC) [nM] | IC50 at 5 days (Cytotoxicity assay (MTT) [2]; PC-3 human prostate AC) [nM] | IC50 at 5 days (Cytotoxicity assay (MTT) [2]; SK-OV-3 human ovary AC) [nM] | IC50 at 5 days (Cytotoxicity assay (MTT) [3]; KB 3.1 human endocervical adenocarcinoma) [nM] | IC50 at 5 days (Cytotoxicity assay (MTT) [3]; L929 mouse fibroblasts) [nM] |
| --- | --- | --- | --- | --- | --- | --- | --- | --- | --- | --- | --- | --- |
| C[C@@H]1[C@H](O)[C@@H](C)/C=C/C=C/CC/C=C/C=C/C=C/C=C/C(O[C@H]2O[C@H](C)[C@@H](O)[C@H](N)[C@@H]2O)CC2O[C@](O)(CC(O)C(O)CCC(O)CC(O)CC(O)CC(=O)O[C@H]1C)CC(O)C2C(=O)O (stereo partly drawn) [nystatin, reference compound] | 66.7 ^5 µg/mL | 66.7 ^5 µg/mL | 66.7 ^5 µg/mL | 16.7 ^5 µg/mL | 33.3 ^5 µg/mL |  |  |  |  |  |  |  |
| C/C(=C\c1csc(C)n1)[C@@H]1C[C@@H]2O[C@]2(C)CCC[C@H](C)[C@H](O)[C@@H](C)C(=O)C(C)(C)[C@@H](O)CC(=O)O1 [epothilone B, reference compound] |  |  |  |  |  | 0.05 | 0.08 | 0.12 | 0.08 | 0.34 | 0.79 | 0.06 |
